What all share (assay type): cell-based
One test deals with Streptococcus faecalis. The test is described as follows: MIC, agar plate dilution method on standard nutrient agar. The note with it: 37° C., 24 hours. On the procedure:
(§1) The minimum growth inhibiting concentration (MIC) of various antibacterial substances against Bacillus cereus and other general putrefying bacteria were measured by using a standard nutrient agar (made by Difco Corp.) and by introducing the agar plate dilution method.
(§2) On a plain culture medium on which chemicals were placed in a stepwise dilution system the liquid spore suspension (×10^8 /ml) with respect to the strains of the genus of Bacillus and the respective pre-culture mediums (37° C., 24 hours) provided by Brain Heart Infusion Broth with respect to the other strains were smeared.

For test [1], the system named is Leuconostoc mesenteroides. The description is as above. The note with it: 37° C., 24 hours. On the procedure: as §1, §2
The test system of another test is Bacillus subtilis. The test is described as above. The settings on record: Bacillus subtilis spores, 37° C., 24 hours. On the procedure:
as §1, §2

A further test relates to Bacillus coaglans. The test is described as above. The note with it: Bacillus coaglans spores, 37° C., 24 hours. On the procedure: as §1, §2
In a further test the test system is Lactobacillus casei. Described as above. The settings on record: 37° C., 24 hours. On the procedure: as §1, §2
For the next test, the system named is Staphylococcus aureus. Described as above. The settings on record: 37° C., 24 hours. On the procedure:
as §1, §2

The next test concerns Bacillus megaterium. Described as above. The note with it: Bacillus megaterium spores, 37° C., 24 hours. On the procedure: as §1, §2
Test [2] concerns Bacillus cereus. The test is described as above. The settings on record: for minimum growth inhibiting concentration (MIC): Bacillus cereus spores, 37° C., 24 hours, judged with the naked eye; for growth inhibition effect against Bacillus cereus: standard nutrient agar, result in words. On the procedure: as §1, §2
The test system of another test is Bacillus licheniformis. The test is described as above. The settings on record: Bacillus licheniformis spores, 37° C., 24 hours. On the procedure:
as §1, §2

For another test, the system named is total viable bacteria. The test is described as follows: Keeping test, cooked rice not contaminated with Bacillus cereus, 30° C. The settings on record: time without smell of putrefaction or change in outward appearance.
In test [3] the test system is Bacillus cereus. The test is described as follows: Keeping test, cooked rice contaminated with Bacillus cereus, 30° C. The note with it: for Effective keeping time: cooked rice contaminated with Bacillus cereus, 30° C., time until Bacillus cereus 10^6 /g or more. On the procedure: Two hundred grams of polished rice was washed in water, and with the addition of 240 ml of water, it was cooked for approximately 15 minutes in an electric rice-cooker which was of the type in public use. The rice cooked was left standing in hot steam for 10 minutes, and then left to cool off at room temperature. On the other hand, a suspension of spores of Bacillus cereus was prepared and added to the cooked rice, which had cooled off, in the proportion of n×10^2 to 1 g final specimen. Specimens were prepared by mixing the rice evenly with addition of the spores.
The cooked rice was put in a plastic case for each 120 g and its temperature was maintained at 30° C., and the number of total viable bacteria and the number of Bacillus cereus were measured periodically using a standard agar culture medium (37° C., 48 hours) and a polymyxin BCW agar culture medium with 5% egg yellow (37° C., 24 hours) for each In parallel with this measurement of the bacterium number, the specimens were examined concerning the outward appearance and the possible smell of putrefaction.
Each of the chemicals shown in Table 4 was dissolved in 20 ml of water to form an aqueous solution of a set concentration.

A value given as a limit tells only on which side of the number the result lay.

For the compound `CCCCCCCCCC(=O)OCC(O)CO` (stereo not drawn) [Capric acid monoglyceride], the “minimum growth inhibiting concentration (MIC)” value turned out to be 0.025 in the test on Streptococcus faecalis (in %); 0.025 in test [1] (in %); 0.01% in the test with Bacillus subtilis; 0.01% in the test with Bacillus coaglans; 0.025 with Lactobacillus casei (in %); 0.025 in the test on Staphylococcus aureus (in %). The minimum growth inhibiting concentration (MIC) in the test on Bacillus megaterium, with Bacillus cereus [2] and with Bacillus licheniformis was 0.01% throughout. Besides, the “growth inhibition effect against Bacillus cereus” value (“growth inhibition effect” below) in the test with Bacillus cereus [2] is recorded as “showed effectiveness”. Besides, the Effective keeping time with total viable bacteria (chemical 0.01% by weight) was 35.0 h; with Bacillus cereus [3] (chemical 0.01% by weight), 8.4 h.

Caprylic acid monoglyceride: the minimum growth inhibiting concentration (MIC) is 0.05% with Streptococcus faecalis; 0.05% in test [1]; 0.05% with Bacillus subtilis; 0.05% in the test on Bacillus coaglans; 0.05% in the test with Lactobacillus casei; 0.1% in the test with Staphylococcus aureus. Further, the minimum growth inhibiting concentration (MIC) in the test on Bacillus megaterium, in the test on Bacillus cereus [2] and with Bacillus licheniformis was 0.05% in each case. The “growth inhibition effect” value in the test with Bacillus cereus [2] is “showed effectiveness”. In addition, the figures for the Effective keeping time in the test with total viable bacteria (chemical 0.05% by weight) and with Bacillus cereus [3] (chemical 0.05% by weight) were 35.0 h and 8.6 h, respectively.

On to `O=P([O-])([O-])OP(=O)([O-])[O-].[Na+].[Na+].[Na+].[Na+]` [Sodium pyrophosphate], for which the minimum growth inhibiting concentration (MIC) (in the test with Streptococcus faecalis; in test [1]; with Bacillus subtilis; with Bacillus coaglans; with Lactobacillus casei; with Staphylococcus aureus) was > 0.5% each time. Further, the minimum growth inhibiting concentration (MIC) with Bacillus megaterium, in the test with Bacillus cereus [2] and in the test on Bacillus licheniformis was > 0.5% each time. Moreover, the Effective keeping time stood at 35.0 h in the test with total viable bacteria (chemical 0.5% by weight) and 8.6 h in the test on Bacillus cereus [3] (chemical 0.5% by weight).

On to protamine sulfate, for which the minimum growth inhibiting concentration (MIC) in the test on Streptococcus faecalis amounted to 0.1%; in [1], 0.1%; in the test on Bacillus subtilis, 0.05%; with Bacillus coaglans, 0.05%; in the test on Lactobacillus casei, 0.1%; with Staphylococcus aureus it was 0.05%. Besides, the minimum growth inhibiting concentration (MIC) in the test on Bacillus megaterium was determined as 0.05%; with Bacillus cereus [2], 0.1%; in the test on Bacillus licheniformis, 0.05%.

protamine: the “growth inhibition effect” value with Bacillus cereus [2] is listed as “showed effectiveness”. The “effectiveness against Bacillus cereus in tests with actual food” value with Bacillus cereus [3] (cooked rice (Example 4), result in words) is recorded as “only protamine has proved to be effective”.

With Lysozyme, the minimum growth inhibiting concentration (MIC) in the test with Streptococcus faecalis was > 0.05%; in test [1] it was > 0.05%; in the test on Bacillus subtilis it was 0.02%; in the test with Bacillus coaglans, 0.05%; in the test with Lactobacillus casei, > 0.05%; in the test on Staphylococcus aureus it was > 0.05%. Besides, the minimum growth inhibiting concentration (MIC) with Bacillus megaterium is 0.05%; in the test on Bacillus cereus [2], > 0.05%; in the test with Bacillus licheniformis, > 0.05%. Further, the figures for the Effective keeping time in the test with total viable bacteria (chemical 0.05% by weight) and in the test on Bacillus cereus [3] (chemical 0.05% by weight) were 35.0 h and 8.5 h, respectively.

The values above are taken from patent US4954358A, “Multiplication inhibitor for Bacillus cereus” (priority 1986, dated 1990).
